Test results as given in paper PMC10726440, “N-Biphenyl Pyrrolinones and Dibenzofurans as RNA-Binding Protein LIN28 Inhibitors Disrupting the LIN28–Let-7 Interaction” (ACS Medicinal Chemistry Letters, 2023).
“And” between values parts separate entries of the source, which are not always exact repeats. Equal entries are not always repeated. Where two headings read alike, the source gives them in different places.

Target: T1, LIN28A(16–187)–let-7 interaction (Homo sapiens, UniProt Q9H9Z2)
T1 construct: LIN28A(16–187) or LIN28B(24–111); pET19a or pMAL vector) (cleaved yes); made in house; host or cells: Escherichia coli BL21(DE3)
T1 sequence (Q9H9Z2 16-187): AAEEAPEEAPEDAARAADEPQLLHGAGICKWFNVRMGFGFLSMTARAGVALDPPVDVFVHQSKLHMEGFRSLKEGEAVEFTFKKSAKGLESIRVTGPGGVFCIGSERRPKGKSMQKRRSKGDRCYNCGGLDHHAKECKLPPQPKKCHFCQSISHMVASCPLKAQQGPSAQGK
Assay: Electrophoretic mobility shift assay (EMSA), disruption of LIN28–let-7 complex
Assay type: binding
Conditions: for inhibition at 75 µM: read-out: inhibition of the LIN28–let-7 interaction measured in EMSA; for IC50: concentration-dependent EMSA, some values estimated, read-out: IC50 in dose–response EMSA; for inhibition of LIN28–let-7 complex formation in concentration-dependent EMSA (in words): dose–response EMSA
Protocol: Inhibition of the LIN28–let-7 complex was evaluated by electrophoretic mobility shift assays. Mixtures containing compound at indicated concentrations, LIN28A(16–187) or LIN28B(24–111), and recombinant ribonuclease inhibitor (TaKaRa Bio) were incubated at room temperature for 2 h. The reaction buffer contained 50 mM TRIS, pH 7.5, 100 mM NaCl, 10 mM β-mercaptoethanol, 50 μM ZnCl2, 2% DMSO, 0.01% Tween-20 and 12% glycerol. Cy-3-fluorophore labeled RNA, (pre-E let-7f-1-Cy3, Mus musculus, […]-Cy3, purchased from IDT) was added to the reaction and incubated for further 15 min. The final concentrations were as follows: 10 nM LIN28A or 200 nM LIN28B, 5 nM RNA. Of each mixture, 10 μL was analyzed on a nondenaturing PAGE (5.3% acrylamide TAE PAGE for full-length LIN28 and 10% acrylamide TAE PAGE for analysis of the CSD) prerun for 1 h without sample and run for 1 h at 220 V at 4 °C in 0.25× TAE buffer. Gels were imaged using a ChemiDoc MP instrument (Bio-Rad Laboratories). Band intensities were analyzed using ImageJ and inhibition was quantified by calculation of the ratio of free RNA fluorescence to the fluorescence of the protein–RNA complex, and normalization to free RNA and LIN28–let-7 complex controls. The intensity ratio was analyzed by nonlinear regression fit in GraphPad Prism to determine the IC50 values.

[1] = single concentration of 75 μM, 75 µM

inhibition at 75 µM (single concentration of 75 μM) [%] | inhibition of the LIN28–let-7 interaction measured in EMSA (single concentration of 75 μM) | SMILES | other results
98 |  | O=C(C1=C(O)C(=O)N(c2cccc(-c3ccccc3)c2)C1c1ccc([N+](=O)[O-])cc1)c1ccccc1F (stereo not shown) [Compound 33] | 
87 |  | COc1ccc(C(=O)C2=C(O)C(=O)N(c3ccc4c(c3)oc3ccccc34)C2c2ccc([N+](=O)[O-])cc2)cc1 (stereo not shown) [Compound 47] | 
87 |  | COc1ccc(C(=O)C2=C(O)C(=O)N(c3cccc(-c4ccccc4)c3)C2c2ccc([N+](=O)[O-])cc2)cc1 (stereo not shown) [Compound 31] | 
75 |  | Cn1cccc1C(=O)C1=C(O)C(=O)N(c2cccc(-c3ccccc3)c2)C1c1ccc([N+](=O)[O-])cc1 (stereo not shown) [Compound 37] | 
8 |  | O=C(C1=C(O)C(=O)N(c2cccc(-c3ccccc3)c2)C1c1ccc([N+](=O)[O-])cc1)C1CCC1 (stereo not shown) [Compound 26] | 
94 |  | O=C(C1=C(O)C(=O)N(c2ccc3oc4ccccc4c3c2)C1c1ccc([N+](=O)[O-])cc1)c1ccccc1 (stereo not shown) [Compound 40] | 
74 |  | COc1ccc(C(=O)C2=C(O)C(=O)N(c3ccc4oc5ccccc5c4c3)C2c2ccc([N+](=O)[O-])cc2)cc1 (stereo not shown) [Compound 42] | 
8 |  | O=C(C1=C(O)C(=O)N(c2cccc(-c3ccccc3)c2)C1c1ccc([N+](=O)[O-])cc1)c1nccs1 (stereo not shown) [Compound 38] | 
83 |  | Cc1ccc(C(=O)C2=C(O)C(=O)N(c3cccc(-c4ccccc4)c3)C2c2ccc([N+](=O)[O-])cc2)o1 (stereo not shown) [Compound 36] | 
76 |  | O=C(C1=C(O)C(=O)N(c2cccc(-c3ccccc3)c2)C1c1ccc([N+](=O)[O-])cc1)c1ccc(F)cc1 (stereo not shown) [Compound 32] | 
87 |  | O=C(C1=C(O)C(=O)N(c2cccc(-c3ccccc3)c2)C1c1ccc([N+](=O)[O-])cc1)c1ccco1 (stereo not shown) [Compound 35] | IC50: ~45 µM
40 |  | O=C(C1=C(O)C(=O)N(c2cccc(-c3ccccc3)c2)C1c1ccc([N+](=O)[O-])cc1)c1ccc(C(F)(F)F)cc1 (stereo not shown) [Compound 39] | 
73 |  | O=C(C1=C(O)C(=O)N(c2cccc(-c3ccccc3)c2)C1c1ccc([N+](=O)[O-])cc1)c1ccc(Br)cc1 (stereo not shown) [Compound 30] | 

Second part, the compound before the results:

SMILES | inhibition at 75 µM (single concentration of 75 μM) [%] | inhibition of the LIN28–let-7 interaction measured in EMSA (single concentration of 75 μM) | other results
O=C(C1=C(O)C(=O)N(CCCc2ccccc2)C1c1ccc([N+](=O)[O-])cc1)c1ccccc1 (stereo not shown) [Compound 12] | 76.5 |  | IC50: < 15 µM and 5 to 15 µM; inhibition of the LIN28–let-7 interaction measured in EMSA [1]: 77%
O=C(C1=C(O)C(=O)N(c2ccc3c(c2)oc2ccccc23)C1c1ccc([N+](=O)[O-])cc1)c1ccccc1 (stereo not shown) [Compound 45] | 97 |  | inhibition of LIN28–let-7 complex formation in concentration-dependent EMSA (in words): best inhibitory activities among the evaluated molecules
O=C(C1=C(O)C(=O)N(c2cccc(-c3ccccc3)c2)C1c1ccc([N+](=O)[O-])cc1)c1ccc([N+](=O)[O-])c(O)c1 (stereo not shown) [Compound 34] |  |  | inhibition at 75 µM: 49%
COc1ccc(CN/C(=C2\C(=O)C(=O)N(c3ccc(O)c(C(=O)O)c3)C2c2ccc([N+](=O)[O-])cc2)c2ccccc2)cc1 (stereo not shown) [Compound 13] | 102 | active | IC50: 26 µM
O=C(C1=C(O)C(=O)N(c2ccc3c(c2)oc2ccccc23)C1c1ccc([N+](=O)[O-])cc1)c1ccc(F)cc1 (stereo not shown) [Compound 48] | 93 |  | 
N=C1CC=CC=C1C1=C(N)C(=O)N(c2ccc(O)c(C(=O)O)c2)[C@@H]1c1ccc([N+](=O)[O-])cc1 [Compound 23] |  | inactive | inhibition of the LIN28–let-7 interaction measured in EMSA [1]: none of these aforementioned enantiomerically pure molecules were active
O=C(O)c1cc(N2C(=O)c3nn(Cc4ccccc4)c(-c4ccccc4)c3C2c2ccc([N+](=O)[O-])cc2)ccc1O (stereo not shown) [Compound 14] |  | inactive | 
O=C(C1=C(O)C(=O)N(c2cccc([N+](=O)[O-])c2)[C@@H]1c1ccc([N+](=O)[O-])cc1)c1ccccc1 [Compound 21] |  | none of these aforementioned enantiomerically pure molecules were active | 
O=C(C1=C(O)C(=O)N(c2ccc3oc4ccccc4c3c2)C1c1ccc([N+](=O)[O-])cc1)c1ccc(Br)cc1 (stereo not shown) [Compound 41] | 53 |  | 
O=C(C1=C(O)C(=O)N(c2ccc(O)c(C(=O)O)c2)C1c1ccc([N+](=O)[O-])cc1)c1ccccn1 (stereo not shown) [Compound 4] |  |  | IC50: 19 µM and ~19 µM
O=C(C1=C(O)C(=O)N(c2ccc3oc4ccccc4c3c2)C1c1ccc([N+](=O)[O-])cc1)c1ccc(F)cc1 (stereo not shown) [Compound 43] | 60 |  | 
O=C(O)c1cc(N2C(=O)C(O)=C(Cc3ccccc3)[C@H]2c2ccc([N+](=O)[O-])cc2)ccc1O [Compound 19] |  | none of these aforementioned enantiomerically pure molecules were active | 
O=C(C1=C(O)C(=O)N(c2ccc(O)c(C(=O)O)c2)C1c1ccc2cnccc2c1)c1ccccc1 (stereo not shown) [Compound 9] | 99.9 |  | IC50: < 15 µM and ~5 µM
O=C(O)c1cc(N2C(=O)c3c(c(-c4ccccc4)nn3Cc3ccccc3)C2c2ccc([N+](=O)[O-])cc2)ccc1O (stereo not shown) [Compound 15] |  | inactive | 
O=C(C1=C(O)C(=O)N(c2cccc([N+](=O)[O-])c2)[C@H]1c1ccc([N+](=O)[O-])cc1)c1ccccc1 [Compound 20] |  | none of these aforementioned enantiomerically pure molecules were active | 
O=C(C1=C(O)C(=O)N(c2cccc(-c3ccccc3)c2)C1c1ccc([N+](=O)[O-])cc1)C1CCCCC1 (stereo not shown) [Compound 24] | 49 |  | 
O=C(C1=C(O)C(=O)N(c2ccc(O)c(C(=O)O)c2)[C@@H]1c1ccc([N+](=O)[O-])cc1)c1ccc(Cl)cc1 [Compound 16] |  | none of these aforementioned enantiomerically pure molecules were active | 
O=C(C1=C(O)C(=O)N(c2ccc(O)c(C(=O)O)c2)[C@H]1c1ccc([N+](=O)[O-])cc1)c1ccc(Cl)cc1 [Compound 17] |  | none of these aforementioned enantiomerically pure molecules were active | 
O=C(C1=C(O)C(=O)N(c2ccc(O)c(C(=O)O)c2)C1c1ccc([N+](=O)[O-])cc1)c1ccccc1 (stereo not shown) [Compound 2] |  | not active | 
Nc1ccc(C2C(C(=O)c3ccccc3)=C(O)C(=O)N2c2ccc(O)c(C(=O)O)c2)cc1 (stereo not shown) [Compound 10] | 84.1 |  | IC50: < 15 µM and 5 to 15 µM
O=C(C1=C(O)C(=O)N(c2ccc3c(c2)oc2ccccc23)C1c1ccc([N+](=O)[O-])cc1)c1ccc(Br)cc1 (stereo not shown) [Compound 46] | 86 |  | 
Cc1ccc(C(=O)C2=C(O)C(=O)N(c3ccc(O)c(C(=O)O)c3)C2c2ccc([N+](=O)[O-])cc2)cc1 (stereo not shown) [Compound 3] | ≥ 60 |  | IC50: 33 µM
O=C(C1=C(O)C(=O)N(c2ccc(O)c(C(=O)O)c2)C1c1ccc2cn[nH]c2c1)c1ccccc1 (stereo not shown) [Compound 7] | 70.7 |  | IC50: 34 µM
O=C(C1=C(O)C(=O)N(c2ccc3c(c2)oc2ccccc23)C1c1ccc([N+](=O)[O-])cc1)c1ccco1 (stereo not shown) [Compound 49] | 95 |  | inhibition of LIN28–let-7 complex formation in concentration-dependent EMSA (in words): best inhibitory activities among the evaluated molecules
O=C(C1=C(O)C(=O)N(c2ccc3oc4ccccc4c3c2)C1c1ccc([N+](=O)[O-])cc1)c1ccco1 (stereo not shown) [Compound 44] | 90 |  | 
O=C(C1=C(O)C(=O)N(c2ccc(O)c(C(=O)O)c2)C1c1ccc2[nH]nnc2c1)c1ccccc1 (stereo not shown) [Compound 6] | 95.4 |  | IC50: 20 µM and ~20 µM
O=C(O)c1cc(N2C(=O)C(O)=C(Cc3ccccc3)[C@@H]2c2ccc([N+](=O)[O-])cc2)ccc1O [Compound 18] |  | none of these aforementioned enantiomerically pure molecules were active | 
O=C(O)c1cc(N2C(=O)C(O)=C(c3nccs3)C2c2ccc([N+](=O)[O-])cc2)ccc1O (stereo not shown) [Compound 5] | ≥ 60 | active | IC50: 32 µM
NC1=C(C(=O)c2ccccc2)[C@@H](c2ccc([N+](=O)[O-])cc2)N(c2ccc(O)c(C(=O)O)c2)C1=O [Compound 22] |  | inactive | inhibition of the LIN28–let-7 interaction measured in EMSA [1]: none of these aforementioned enantiomerically pure molecules were active
